Experimental data: patent publication US20030232868A1, “Cyclic carboxylic acids as integrin antagonists” (priority 2000, published 2003)
Read-outs that look alike come from different tables or passages of the source.

Assays:
[1] = test system: adhesion of Ramos cells to VCAM-1; assay: Adhesion of Ramos cells to immobilized VCAM-1 (domains 1-3) (Ramos—VCAM-1 assay); type: cell-based; conditions: Homo sapiens
Excerpt: In Vitro Assay: Adhesion of Jurkat/Ramos Cells to Immobilized VCAM-1 (Domains 1-3)
Preparation of VCAM-1 (Extracellular Domains 1-3)
Complementary DNA (cDNA) encoding 7 domain form of VCAM-1 (GenBank accession #M60335) was obtained using Rapid-Screen™ cDNA library panels (OriGene Technologies, Inc) at Takara Gene Analysis Center (Shiga, Japan). The primers used were 5′-CCAAGGCAGAGTACGCAAAC-3′ (sense) and 5′-TGGCAGGTATTATTAAGGAG-3′ (antisense). PCR amplification of the 3 domain VCAM-1 cDNA was perform using Pfu DNA polymerase (Stratagene) with the following sets of primers: (U-VCAMd1-3) 5′-CCATATGGTACCTGATCAATTTAAAATCGAGACCACCCCAGAA-3′; (L-VCAMd1-3) 5′-CCATATAGCAATCCTAGGTCCAGGGGAGATCTCAACAGTAAA-3′. PCR cycle was 94° C. for 45 sec. 55° C. for 45 sec, 72° C. for 2 min, repeating 15 cycles. After the purification of the PCR product, the fragment was digested with KpnI-AvrII. The digested fragment was ligated into pBluescript IISK(−) (Strategene), which was linearized by digesting with KpnI-XhoI. The ligation was followed by transformation to a Dam/Dcm methylase-free E. coli strain SCS110 (Strategene) to create the donor plasmid pHH7. To direct VCAM-1 molecule into the insect cell secretory pathway, the VCAM-1 coding sequence was fused to signal peptide sequence of honeybee melittin. The resulting melittin-VCAM fusion was placed in correct orientation to the baculovirus polyhedrin promoter. Baculovirus transfer vector containing first 3-domain form VCAM-1 (pH 10) was constructed by ligation of 0.9 kb fragment from AvrII/Klenow/BclI digests of pH 7 into SalI/Klenow/BamHI digests of pMelBacB Invitrogen). Recombinant baculovirus was generated by using Bac-N-Blue™ Transfection kit (Invitrogen) according to the manufacture's instruction. The recombinant virus was amplified by infection to High-Five™ insect cells for 5-6 days, and virus titer was determined by plaque assay.
High-Five™ insect cells were pelleted in a 225 ml conical tube by centrifugation at 1000 rpm for 5 min. After discarding the supernatant, the pellet was resuspended in 1.5×10^9 pfu (MOI=5) of high-titer virus solution, followed by incubation for 1.5 hours at room temperature. The cells were pelleted again and washed once in fresh Express Five™ serum free medium. The cells were pelleted again and finally, resuspended in 200 ml of fresh Express Five TM medium, transferred to a 1,000 ml shaker flask, and incubated in a shaker at 27° C., 130 rpm, for 48 hours before the culture supernatant was collected. The purification of 3-domain form of VCAM-1 from the culture supernatant was performed by one-step anion exchange chromatography. Protein concentration was determined by using Coomassie protein assay reagent (Pierce) according to the manufacture's instruction.
Preparation of VCAM-1 Coated Microtiter Plates
Recombinant human VCAM-1 (extracellular domains 1-3) was dissolved at 1.0 μg/1 ml in PBS. Each well of the microtiter plates (Nalge Nunc International, Fluoro-nunc Cert, 437958) was coated with 100 μl of substrate or for background control with buffer alone for 15 hours at 4 C. After discarding the substrate solution, the wells were blocked using 150 μl per well of block solution Kirkegaard Perry Laboratories, 50-61-01) for 90 minutes. The plate was washed with wash buffer containing 24 mM Tris-HCl (pH 7.4), 137 mM NaCl, […] and 2 MM MnCl2 just before addition of the assay.
In Vitro Assay using Ramos Cells
Preparation of Fluorescence Labeled Ramos Cells:
Ramos cells (American Type Culture Collection, Clone CRL-1596) were cultured in RPMI 1640 medium (Nikken Bio Medical Laboratory, CM1101) supplemented with 10% fetal bovine serum (Hyclone, A-1119-L), 100 U/ml penicilin (Gibco BRL, 15140-122) and 100 μg/ml streptomycin (Gibco BRL, 15140-122) in a humidified incubator at 37° C. with 5% CO2. […]

Cc1ccccc1NC(=O)Nc1ccc(CC(=O)N[C@@H](CCCCN)C(=O)Nc2ccc(C(=O)O)cc2)cc1.O=C(O)C(F)(F)F [Example 58]
melting point: 168 to 169 °C | IC50 ([1]; Cell Type Ramos, adhesion to VCAM-1 coated plates, 1 hour at 37 C, IC50 value ranges, read-out: IC50): < 500 nM

COCCCN(CC(=O)Nc1ccc(C(=O)O)cc1)C(=O)Cc1ccc(NC(=O)Nc2ccccc2C)cc1 [Example 59]
melting point: 210 to 218 °C | IC50 ([1]; Ramos, 1 h): < 500 nM
